# How the values were obtained:
# endometrial explants = experiment: Animal model of endometriosis in adult female rats (endometrium autotransplanted under the renal capsule); assay type: in vivo, rat; conditions: for volume of the explant: measured one week after the fourth weekly dose
# [1] = system: pain symptoms in premenopausal women; experiment: Randomized, double-blind, parallel group clinical study of exemestane on pain symptoms in premenopausal women with endometriosis; assay type: in vivo, human; conditions: for ESS Composite Improvement from Visit 6 (Baseline): No / ESS Composite Improvement from Visit 6 (Baseline): Yes: % of total reported
# [2] = 25 mg orally per day, Visit 10 (4 weeks of exemestane)
# [3] = 25 mg orally per day, Visit 10 (4 weeks of exemestane), improvement = decrease of at least 1 point
# [4] = 25 mg orally per day, Visit 14 (8 weeks of exemestane)
# [5] = 25 mg orally per day, Visit 18 (follow-up)
# [6] = 100 mg orally per day, Visit 10 (4 weeks of exemestane)
# [7] = 100 mg orally per day, Visit 10 (4 weeks of exemestane), improvement = decrease of at least 1 point
# [8] = 100 mg orally per day, Visit 14 (8 weeks of exemestane)
# [9] = 100 mg orally per day, Visit 18 (follow-up)
# [10] = either treatment group (25 or 100 mg/day), over the study period
smiles,measurement,setting,value
CC(C)C[C@H](NC(=O)[C@@H](Cc1c[nH]c2ccccc12)NC(=O)[C@H](Cc1ccc(O)cc1)NC(=O)[C@H](CO)NC(=O)[C@H](Cc1c[nH]c2ccccc12)NC(=O)[C@H](Cc1c[nH]cn1)NC(=O)[C@@H]1CCC(=O)N1)C(=O)N[C@@H](CCCNC(=N)N)C(=O)N1CCC[C@H]1C(=O)NCC(N)=O [triptorelin],volume of the explant,"endometrial explants; triptorelin alone, subcutaneously once weekly for 4 weeks",dose-related decrease in the volume of the explant
"C=C1C[C@@H]2[C@H](CC[C@]3(C)C(=O)CC[C@@H]23)[C@@]2(C)C=CC(=O)C=C12 [Exemestane, 6-methylenandrost-1,4-diene-3,17-dione]",volume of the explant,"endometrial explants; exemestane alone, intramuscularly once a week for 4 consecutive weeks",dose-related decrease in the volume of the explant
same,"effect on growth of the endometrial explants, combination","endometrial explants; exemestane in combination with triptorelin at marginally or intermediate effective doses, 4 weeks",additive or synergistic effect
same,tolerability,"[1]; 25 mg and 100 mg, 54 woman subjects who received at least one dose",well tolerated
same,"Dysmenorrhea: Improvement over Visit 6 (Baseline, Start of Treatment): No",[1]; [2],44.0%
same,"Dyspareunia: Improvement over Visit 6 (Baseline, Start of Treatment): No",[1]; [2],35.3%
same,"Pelvic Pain: Improvement over Visit 6 (Baseline, Start of Treatment): No",[1]; [2],44.0%
same,"ESS Scale, Composite Score, Change from Visit 6, Mean","[1]; 25 mg orally per day, Visit 10 (4 weeks of exemestane), 17 patients with 3 endpoints evaluated, Visit 6 mean 5.0588, SD 2.0917, within treatment p 0.002",−2.000
same,ESS Composite Improvement from Visit 6 (Baseline): No,[1]; [2],56.0%
same,ESS Composite Improvement from Visit 6 (Baseline): Yes,"[1]; 25 mg orally per day, Visit 10 (4 weeks of exemestane), improvement = at least 3-point decrease (3 symptoms) or 2-point (2 symptoms)",44.0%
same,"Dysmenorrhea: Improvement over Visit 6 (Baseline, Start of Treatment): Yes",[1]; [3],56.0%
same,"Dyspareunia: Improvement over Visit 6 (Baseline, Start of Treatment): Yes",[1]; [3],64.7%
same,"Pelvic Pain: Improvement over Visit 6 (Baseline, Start of Treatment): Yes",[1]; [3],56.0%
same,"Dysmenorrhea: Improvement over Visit 6 (Baseline, Start of Treatment): No",[1]; [4],41.7%
same,"Dysmenorrhea: Improvement over Visit 6 (Baseline, Start of Treatment): Yes",[1]; [4],58.3%
same,"Dyspareunia: Improvement over Visit 6 (Baseline, Start of Treatment): No",[1]; [4],31.6%
same,"Dyspareunia: Improvement over Visit 6 (Baseline, Start of Treatment): Yes",[1]; [4],68.4%
same,"Pelvic Pain: Improvement over Visit 6 (Baseline, Start of Treatment): No",[1]; [4],41.7%
same,"Pelvic Pain: Improvement over Visit 6 (Baseline, Start of Treatment): Yes",[1]; [4],58.3%
same,"ESS Scale, Composite Score, Change from Visit 6, Mean","[1]; 25 mg orally per day, Visit 14 (8 weeks of exemestane), 19 patients, Visit 6 mean 5.1579, SD 1.8257, within treatment p <0.001",−2.000
same,ESS Composite Improvement from Visit 6 (Baseline): No,[1]; [4],66.7%
same,ESS Composite Improvement from Visit 6 (Baseline): Yes,[1]; [4],33.3%
same,"Dysmenorrhea: Improvement over Visit 6 (Baseline, Start of Treatment): No",[1]; [5],64.0%
same,"Dysmenorrhea: Improvement over Visit 6 (Baseline, Start of Treatment): Yes",[1]; [5],36.0%
same,"Dyspareunia: Improvement over Visit 6 (Baseline, Start of Treatment): No",[1]; [5],29.4%
same,"Dyspareunia: Improvement over Visit 6 (Baseline, Start of Treatment): Yes",[1]; [5],70.6%
same,"Pelvic Pain: Improvement over Visit 6 (Baseline, Start of Treatment): No",[1]; [5],68.0%
same,"Pelvic Pain: Improvement over Visit 6 (Baseline, Start of Treatment): Yes",[1]; [5],32.0%
same,"ESS Scale, Composite Score, Change from Visit 6, Mean","[1]; 25 mg orally per day, Visit 18 (follow-up), 17 patients, Visit 6 mean 5.0588, SD 1.8028, within treatment p <0.001",−2.000
same,ESS Composite Improvement from Visit 6 (Baseline): No,[1]; [5],84.0%
same,ESS Composite Improvement from Visit 6 (Baseline): Yes,[1]; [5],16.0%
same,"Dyspareunia score, Change from Baseline, Mean ± SD","[1]; 25 mg, Visit 10 (4 weeks of exemestane), baseline 1.6 ± 0.7, N 17",−0.9 ± 0.8
same,"Pelvic Pain score, Change from Baseline, Mean ± SD","[1]; 25 mg, Visit 10 (4 weeks of exemestane), baseline 1.8 ± 0.5, N 25",−0.6 ± 0.9
same,"Dysmenorrhea score, Change from Baseline, Mean ± SD","[1]; 25 mg, Visit 10 (4 weeks of exemestane), baseline 2.0 ± 0.6, N 17",−0.9 ± 0.8
same,"Dyspareunia score, Change from Baseline, Mean ± SD","[1]; 25 mg, Visit 14 (8 weeks of exemestane), baseline 1.6 ± 0.7, N 19",−0.8 ± 0.6
same,"Pelvic Pain score, Change from Baseline, Mean ± SD","[1]; 25 mg, Visit 14 (8 weeks of exemestane), baseline 1.8 ± 0.5, N 24",−0.6 ± 0.9
same,"Dysmenorrhea score, Change from Baseline, Mean ± SD","[1]; 25 mg, Visit 14 (8 weeks of exemestane), baseline 2.0 ± 0.6, N 19",−0.8 ± 0.6
same,"Dysmenorrhea: Improvement over Visit 6 (Baseline, Start of Treatment): No",[1]; [6],38.5%
same,"Dyspareunia: Improvement over Visit 6 (Baseline, Start of Treatment): No",[1]; [6],38.9%
same,"Pelvic Pain: Improvement over Visit 6 (Baseline, Start of Treatment): No",[1]; [6],30.8%
same,"ESS Scale, Composite Score, Change from Visit 6, Mean","[1]; 100 mg orally per day, Visit 10 (4 weeks of exemestane), 18 patients, Visit 6 mean 5.9444, SD 2.0364, within treatment p <0.001",−2.5000
same,ESS Composite Improvement from Visit 6 (Baseline): No,[1]; [6],46.2%
same,ESS Composite Improvement from Visit 6 (Baseline): Yes,"[1]; 100 mg orally per day, Visit 10 (4 weeks of exemestane), improvement = at least 3-point decrease (3 symptoms) or 2-point (2 symptoms)",53.8%
same,"Dysmenorrhea: Improvement over Visit 6 (Baseline, Start of Treatment): Yes",[1]; [7],61.5%
same,"Dyspareunia: Improvement over Visit 6 (Baseline, Start of Treatment): Yes",[1]; [7],61.1%
same,"Pelvic Pain: Improvement over Visit 6 (Baseline, Start of Treatment): Yes",[1]; [7],69.2%
same,"Dysmenorrhea: Improvement over Visit 6 (Baseline, Start of Treatment): No",[1]; [8],39.1%
same,"Dysmenorrhea: Improvement over Visit 6 (Baseline, Start of Treatment): Yes",[1]; [8],60.9%
same,"Dyspareunia: Improvement over Visit 6 (Baseline, Start of Treatment): No",[1]; [8],47.1%
same,"Dyspareunia: Improvement over Visit 6 (Baseline, Start of Treatment): Yes",[1]; [8],52.9%
same,"Pelvic Pain: Improvement over Visit 6 (Baseline, Start of Treatment): No",[1]; [8],30.4%
same,"Pelvic Pain: Improvement over Visit 6 (Baseline, Start of Treatment): Yes",[1]; [8],69.6%
same,"ESS Scale, Composite Score, Change from Visit 6, Mean","[1]; 100 mg orally per day, Visit 14 (8 weeks of exemestane), 17 patients, Visit 6 mean 5.5882, SD 1.9059, within treatment p <0.001",−2.4118
same,ESS Composite Improvement from Visit 6 (Baseline): No,[1]; [8],43.5%
same,ESS Composite Improvement from Visit 6 (Baseline): Yes,[1]; [8],56.5%
same,"Dysmenorrhea: Improvement over Visit 6 (Baseline, Start of Treatment): No",[1]; [9],50.0%
same,"Dysmenorrhea: Improvement over Visit 6 (Baseline, Start of Treatment): Yes",[1]; [9],50.0%
same,"Dyspareunia: Improvement over Visit 6 (Baseline, Start of Treatment): No",[1]; [9],50.0%
same,"Dyspareunia: Improvement over Visit 6 (Baseline, Start of Treatment): Yes",[1]; [9],50.0%
same,"Pelvic Pain: Improvement over Visit 6 (Baseline, Start of Treatment): No",[1]; [9],31.8%
same,"Pelvic Pain: Improvement over Visit 6 (Baseline, Start of Treatment): Yes",[1]; [9],68.2%
same,"ESS Scale, Composite Score, Change from Visit 6, Mean","[1]; 100 mg orally per day, Visit 18 (follow-up), 14 patients, Visit 6 mean 5.5714, SD 1.7852, within treatment p 0.016",−1.4286
same,ESS Composite Improvement from Visit 6 (Baseline): No,[1]; [9],50.0%
same,ESS Composite Improvement from Visit 6 (Baseline): Yes,[1]; [9],50.0%
same,"Dyspareunia score, Change from Baseline, Mean ± SD","[1]; 100 mg, Visit 10 (4 weeks of exemestane), baseline 1.9 ± 1.0, N 18",−1.0 ± 1.3
same,"Pelvic Pain score, Change from Baseline, Mean ± SD","[1]; 100 mg, Visit 10 (4 weeks of exemestane), baseline 2.1 ± 0.5, N 26",−0.8 ± 0.7
same,"Dysmenorrhea score, Change from Baseline, Mean ± SD","[1]; 100 mg, Visit 10 (4 weeks of exemestane), baseline 2.1 ± 0.7, N 18",−1.0 ± 1.3
same,"Dyspareunia score, Change from Baseline, Mean ± SD","[1]; 100 mg, Visit 14 (8 weeks of exemestane), baseline 1.9 ± 1.0, N 17",−0.8 ± 0.8
same,"Pelvic Pain score, Change from Baseline, Mean ± SD","[1]; 100 mg, Visit 14 (8 weeks of exemestane), baseline 2.1 ± 0.5, N 23",−0.8 ± 0.8
same,"Dysmenorrhea score, Change from Baseline, Mean ± SD","[1]; 100 mg, Visit 14 (8 weeks of exemestane), baseline 2.1 ± 0.7, N 17",−0.8 ± 0.7
same,endometriosis symptoms,"[1]; 25 or 100 mg orally per day, 2 months",moderate improvement in endometriosis symptoms
same,blood pressure,[1]; [10],Neither blood pressure nor body weight changed significantly
same,body weight,[1]; [10],Neither blood pressure nor body weight changed significantly
same,"hematology, plasma chemistry or urinalysis laboratory assays",[1]; [10],No noteworthy changes

# Reference: patent US20040082557A1, “Methods for treating estrogen-dependent disorders” (priority 2001, published 2004)
